Experimental findings from patent US20250122183A1 (Pfizer Inc., priority 2023, published 2025) are described below.

SMILES strings stand for the structures.

The term Ki denotes the dissociation constant of the complex between target and ligand, obtained from inhibition or displacement.

Common to all, as to format: biochemical
One test has as its target KAT5 Full length enzyme (Homo sapiens (Human), UniProt Q92993). In words: KAT5 assay (SAMDI-MS acetylation of H4 1-21 peptide). Particulars: Morrison equation fit; replicate number in parentheses; read-out: KAT5 Ki (nM) (replicate number).
Test [1] addresses KAT7+BRPF1+EAF6+ING5 4 protein complex (Homo sapiens (Human), UniProt O95251). The test is described as follows: KAT7 BRPF1 assay (SAMDI-MS acetylation of H3 1-21 peptide). Particulars: Morrison equation fit; replicate number in parentheses.
The target in another test is KAT8 Full length enzyme (Homo sapiens (Human), UniProt Q9H7Z6). In words: KAT8 assay (SAMDI-MS acetylation of H3 1-21 peptide). The conditions noted are these: Morrison equation fit; replicate number in parentheses; read-out: KAT8 Ki (nM) (replicate number).
KAT8 Full length enzyme, sequence (Q9H7Z6 whole entry): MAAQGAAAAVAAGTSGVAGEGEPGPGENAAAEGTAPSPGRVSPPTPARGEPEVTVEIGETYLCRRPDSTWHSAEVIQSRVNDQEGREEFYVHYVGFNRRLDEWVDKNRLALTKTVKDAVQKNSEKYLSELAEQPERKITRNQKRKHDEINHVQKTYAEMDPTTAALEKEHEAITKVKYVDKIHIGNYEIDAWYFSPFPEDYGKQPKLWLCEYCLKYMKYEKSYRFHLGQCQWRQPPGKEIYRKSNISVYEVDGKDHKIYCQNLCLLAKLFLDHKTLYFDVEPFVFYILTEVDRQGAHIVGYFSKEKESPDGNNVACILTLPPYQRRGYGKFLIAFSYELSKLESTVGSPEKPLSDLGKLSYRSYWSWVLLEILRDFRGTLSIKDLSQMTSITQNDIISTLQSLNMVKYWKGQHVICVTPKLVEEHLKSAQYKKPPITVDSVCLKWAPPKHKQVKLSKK
For test [2], the target named is KAT7+JADE1+EAF6+ING5 4 protein complex (Homo sapiens (Human), UniProt O95251). The test is described as follows: KAT7 JADE1 assay (SAMDI-MS acetylation of H3 1-21 peptide). The conditions noted are these: Morrison equation fit; replicate number in parentheses; read-out: KAT7 JADE1 Ki (nM) (replicate number).
Test [3] concerns the target KAT7+BRPF2+EAF6+ING5 4 protein complex (Homo sapiens (Human), UniProt O95251). In words: KAT7 BRPF2 assay (SAMDI-MS acetylation of H3 1-21 peptide). The conditions noted are these: Morrison equation fit; replicate number in parentheses; read-out: KAT7 BRPF2 Ki (nM) (replicate number).
For a further test, the target named is KAT6A Full length enzyme (Homo sapiens (Human), UniProt Q92794). In words: KAT6A assay (SAMDI-MS acetylation of H3 1-21 peptide). The conditions noted are these: Morrison equation fit; replicate number in parentheses; read-out: KAT6A Ki (nM) (replicate number).
KAT6A Full length enzyme, sequence (Q92794 other isoform, or with tags, fused parts or gaps): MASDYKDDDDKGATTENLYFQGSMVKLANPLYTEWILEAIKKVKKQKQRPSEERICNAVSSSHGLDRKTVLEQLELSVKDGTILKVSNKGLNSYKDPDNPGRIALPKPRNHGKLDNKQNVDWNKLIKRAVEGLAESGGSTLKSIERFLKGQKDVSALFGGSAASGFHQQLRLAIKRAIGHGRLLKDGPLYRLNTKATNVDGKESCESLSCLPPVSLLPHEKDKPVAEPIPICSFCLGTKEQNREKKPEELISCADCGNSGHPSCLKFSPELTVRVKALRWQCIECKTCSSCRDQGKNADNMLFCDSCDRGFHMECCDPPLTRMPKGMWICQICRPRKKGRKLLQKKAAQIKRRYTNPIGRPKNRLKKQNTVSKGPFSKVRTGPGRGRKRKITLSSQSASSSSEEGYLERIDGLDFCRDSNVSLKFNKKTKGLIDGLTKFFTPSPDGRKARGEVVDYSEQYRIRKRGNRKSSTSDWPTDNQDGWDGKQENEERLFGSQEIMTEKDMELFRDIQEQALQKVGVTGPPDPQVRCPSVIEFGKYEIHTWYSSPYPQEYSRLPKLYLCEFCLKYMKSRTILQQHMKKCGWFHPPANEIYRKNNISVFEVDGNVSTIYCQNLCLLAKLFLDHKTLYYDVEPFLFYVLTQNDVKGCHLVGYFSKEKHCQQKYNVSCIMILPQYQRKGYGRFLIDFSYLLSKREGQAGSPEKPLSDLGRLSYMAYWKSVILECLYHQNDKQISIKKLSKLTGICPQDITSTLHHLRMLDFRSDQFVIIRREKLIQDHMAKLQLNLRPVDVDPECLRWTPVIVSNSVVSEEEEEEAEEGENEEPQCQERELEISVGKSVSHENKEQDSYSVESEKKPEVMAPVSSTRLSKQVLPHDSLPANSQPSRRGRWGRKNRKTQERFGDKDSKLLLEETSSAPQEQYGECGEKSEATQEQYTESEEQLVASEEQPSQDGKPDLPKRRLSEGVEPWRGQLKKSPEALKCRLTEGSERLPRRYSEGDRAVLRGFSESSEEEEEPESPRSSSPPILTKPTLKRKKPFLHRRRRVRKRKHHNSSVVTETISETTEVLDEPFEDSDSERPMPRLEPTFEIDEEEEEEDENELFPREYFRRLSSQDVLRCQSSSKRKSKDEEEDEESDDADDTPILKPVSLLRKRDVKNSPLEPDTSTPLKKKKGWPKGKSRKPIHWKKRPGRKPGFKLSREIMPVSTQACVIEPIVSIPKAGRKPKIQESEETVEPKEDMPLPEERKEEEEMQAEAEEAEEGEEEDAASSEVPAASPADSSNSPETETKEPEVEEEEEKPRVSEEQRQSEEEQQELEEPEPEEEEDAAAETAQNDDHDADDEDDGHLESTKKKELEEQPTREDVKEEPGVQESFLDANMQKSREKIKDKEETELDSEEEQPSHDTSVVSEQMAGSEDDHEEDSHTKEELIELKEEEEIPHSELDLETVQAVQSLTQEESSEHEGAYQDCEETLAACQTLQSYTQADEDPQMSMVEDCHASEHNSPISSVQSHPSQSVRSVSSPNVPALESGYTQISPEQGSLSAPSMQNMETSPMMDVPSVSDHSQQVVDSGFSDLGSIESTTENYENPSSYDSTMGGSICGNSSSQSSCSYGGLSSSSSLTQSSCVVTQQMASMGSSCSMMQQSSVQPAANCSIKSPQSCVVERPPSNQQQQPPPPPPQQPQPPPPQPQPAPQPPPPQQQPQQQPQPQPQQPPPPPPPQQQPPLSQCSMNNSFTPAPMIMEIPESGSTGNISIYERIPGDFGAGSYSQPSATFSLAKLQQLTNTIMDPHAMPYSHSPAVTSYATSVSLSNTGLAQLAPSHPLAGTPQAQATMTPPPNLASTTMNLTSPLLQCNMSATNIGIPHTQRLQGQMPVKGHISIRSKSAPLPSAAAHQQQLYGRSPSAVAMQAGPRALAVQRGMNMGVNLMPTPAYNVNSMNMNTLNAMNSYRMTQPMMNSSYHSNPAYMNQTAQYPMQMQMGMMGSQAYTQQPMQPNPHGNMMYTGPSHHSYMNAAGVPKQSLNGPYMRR

KAT5 Full length enzyme, sequence (Q92993 whole entry): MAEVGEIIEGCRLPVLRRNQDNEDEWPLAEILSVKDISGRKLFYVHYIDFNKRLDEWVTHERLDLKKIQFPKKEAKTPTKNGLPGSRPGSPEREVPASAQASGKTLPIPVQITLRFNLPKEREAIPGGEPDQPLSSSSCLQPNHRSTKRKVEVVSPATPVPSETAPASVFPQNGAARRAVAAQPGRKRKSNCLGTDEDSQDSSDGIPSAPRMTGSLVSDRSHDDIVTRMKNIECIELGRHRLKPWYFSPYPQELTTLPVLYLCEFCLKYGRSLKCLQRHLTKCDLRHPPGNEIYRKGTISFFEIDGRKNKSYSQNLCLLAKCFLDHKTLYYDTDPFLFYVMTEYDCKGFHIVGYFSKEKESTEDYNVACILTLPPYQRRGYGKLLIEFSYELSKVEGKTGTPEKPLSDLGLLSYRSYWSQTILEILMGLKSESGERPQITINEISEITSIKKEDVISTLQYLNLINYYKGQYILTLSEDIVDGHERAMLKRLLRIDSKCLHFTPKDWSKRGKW

For `COc1cc2c(NS(=O)(=O)c3ccc(C)cc3OC)noc2cc1Nc1cc[nH]n1` [Example 23, 2-methoxy-N-{5-methoxy-6-[(1H-pyrazol-3-yl)amino]-1,2-benzoxazol-3-yl}-4-methylbenzene-1-sulfonamide], the inhibition constant (Ki) at KAT5 Full length enzyme came to 418 nM; in test [1], 36.7 nM; at KAT8 Full length enzyme it was 1060 nM; in test [2], 212 nM; in test [3] it was 95.2 nM; on KAT6A Full length enzyme, 0.9 nM.

Consider `COc1cc2c(NS(=O)(=O)c3cc(C)ccc3OC)noc2cc1Nc1cc[nH]n1` [Example 24, 2-methoxy-N-{5-methoxy-6-[(1H-pyrazol-3-yl)amino]-1,2-benzoxazol-3-yl}-5-methylbenzene-1-sulfonamide], for which the Ki at KAT5 Full length enzyme is 236 nM; in test [1], 88.5 nM; on KAT8 Full length enzyme it was 440 nM; in test [2], 285 nM; in test [3], 182 nM; at KAT6A Full length enzyme it was 0.9 nM.

`COc1cc2c(NS(=O)(=O)c3cc(C(C)C)c(C)cc3OC)noc2cc1Nc1cc[nH]n1` [Example 26, 2-methoxy-N-{5-methoxy-6-[(1H-pyrazol-3-yl)amino]-1,2-benzoxazol-3-yl}-4-methyl-5-(propan-2-yl)benzene-1-sulfonamide]: the Ki on KAT5 Full length enzyme turned out to be 189 nM; in test [1], 14.7 nM; on KAT8 Full length enzyme, 154 nM; in test [2] it was 206 nM; in test [3], 71.5 nM; at KAT6A Full length enzyme, 0.6 nM.

Turning to `COc1cc2c(NS(=O)(=O)c3ccc(Cl)cc3OC)noc2cc1Nc1cc[nH]n1` [Example 27, 4-chloro-2-methoxy-N-{5-methoxy-6-[(1H-pyrazol-3-yl)amino]-1,2-benzoxazol-3-yl}benzene-1-sulfonamide], the inhibition constant (Ki) at KAT5 Full length enzyme worked out at 390 nM; in test [1], 74.7 nM; on KAT8 Full length enzyme, 893 nM; in test [2], 220 nM; in test [3], 124 nM; on KAT6A Full length enzyme, 1.3 nM.

With `CCOc1ccccc1S(=O)(=O)Nc1noc2cc(Nc3cc[nH]n3)c(OC)cc12` [Example 28, 2-ethoxy-N-{5-methoxy-6-[(1H-pyrazol-3-yl)amino]-1,2-benzoxazol-3-yl}benzene-1-sulfonamide], the Ki at KAT5 Full length enzyme is 630 nM; in test [1] it was 97.1 nM; on KAT8 Full length enzyme, 3110 nM; in test [2], 290 nM; in test [3], 141 nM; on KAT6A Full length enzyme, 1.2 nM.

`CCOc1cc(C)ccc1S(=O)(=O)Nc1noc2cc(Nc3cc[nH]n3)c(OC)cc12` [Example 29, 2-ethoxy-N-{5-methoxy-6-[(1H-pyrazol-3-yl)amino]-1,2-benzoxazol-3-yl}-4-methylbenzene-1-sulfonamide]: the inhibitory constant (Ki) on KAT5 Full length enzyme worked out at 594 nM; in test [1], 40.5 nM; on KAT8 Full length enzyme, 1380 nM; in test [2] it was 182 nM; in test [3] it was 49.1 nM; at KAT6A Full length enzyme, 1 nM.

With `COc1cc2c(NS(=O)(=O)c3c(OC)cccc3OCC(F)F)noc2cc1Nc1cc[nH]n1` [Example 31, 2-(2,2-difluoroethoxy)-6-methoxy-N-{5-methoxy-6-[(1H-pyrazol-3-yl)amino]-1,2-benzoxazol-3-yl}benzene-1-sulfonamide], the inhibitory constant (Ki) amounted to 977 nM at KAT5 Full length enzyme; 79.9 nM in test [1]; 781 nM at KAT8 Full length enzyme; 325 nM in test [2]; 104 nM in test [3]; 0.8 nM on KAT6A Full length enzyme.

For `COc1cc2c(NS(=O)(=O)c3c(OC)cccc3OC)noc2cc1Nc1ncn(C)n1` [Example 35, 2,6-dimethoxy-N-{5-methoxy-6-[(1-methyl-1H-1,2,4-triazol-3-yl)amino]-1,2-benzoxazol-3-yl}benzene-1-sulfonamide], the inhibitory constant (Ki) at KAT5 Full length enzyme turned out to be 1760 nM; in test [1], 48.3 nM; on KAT8 Full length enzyme, 9110 nM; in test [2] it was 527 nM; in test [3] it was 156 nM; at KAT6A Full length enzyme, 3 nM.

For `COc1cc2c(NS(=O)(=O)c3c(OC)cccc3OC)noc2cc1Nc1n[nH]c(C)n1` [Example 36, 2,6-dimethoxy-N-{5-methoxy-6-[(5-methyl-1H-1,2,4-triazol-3-yl)amino]-1,2-benzoxazol-3-yl}benzene-1-sulfonamide], the Ki on KAT5 Full length enzyme is 1080 nM; in test [1], 93 nM; at KAT8 Full length enzyme it was 2990 nM; in test [2] it was 501 nM; in test [3] it was 106 nM; at KAT6A Full length enzyme, 1 nM.

With `CCn1ccc(Nc2cc3onc(NS(=O)(=O)c4c(OC)cccc4OC)c3cc2OC)n1` [Example 39, N-{6-[(1-ethyl-1H-pyrazol-3-yl)amino]-5-methoxy-1,2-benzoxazol-3-yl}-2,6-dimethoxybenzene-1-sulfonamide], the Ki was 1750 nM on KAT5 Full length enzyme; 75.3 nM in test [1]; greater than 32600 nM at KAT8 Full length enzyme; 175 nM in test [2]; 98.2 nM in test [3]; 6.1 nM at KAT6A Full length enzyme.

In the case of `CCc1nc(Nc2cc3onc(NS(=O)(=O)c4c(OC)cccc4OC)c3cc2OC)n[nH]1` [Example 40, N-{6-[(5-ethyl-1H-1,2,4-triazol-3-yl)amino]-5-methoxy-1,2-benzoxazol-3-yl}-2,6-dimethoxybenzene-1-sulfonamide], the Ki was 4600 nM at KAT5 Full length enzyme; 49.1 nM in test [1]; greater than 16300 nM on KAT8 Full length enzyme; 526 nM in test [2]; 156 nM in test [3]; 3.1 nM on KAT6A Full length enzyme.

Turning to `CCn1cnc(Nc2cc3onc(NS(=O)(=O)c4c(OC)cccc4OC)c3cc2OC)n1` [Example 41, N-{6-[(1-ethyl-1H-1,2,4-triazol-3-yl)amino]-5-methoxy-1,2-benzoxazol-3-yl}-2,6-dimethoxybenzene-1-sulfonamide], the inhibition constant Ki on KAT5 Full length enzyme was 3390 nM; in test [1], 25.6 nM; at KAT8 Full length enzyme, greater than 16300 nM; in test [2], 359 nM; in test [3], 94.2 nM; on KAT6A Full length enzyme, 6 nM.

On to `CCn1cc(Nc2cc3onc(NS(=O)(=O)c4c(OC)cccc4OC)c3cc2OC)nn1` [Example 42, N-{6-[(1-ethyl-1H-1,2,3-triazol-4-yl)amino]-5-methoxy-1,2-benzoxazol-3-yl}-2,6-dimethoxybenzene-1-sulfonamide], for which the inhibition constant Ki at KAT5 Full length enzyme was 7120 nM; in test [1] it was 26.7 nM; on KAT8 Full length enzyme, greater than 16300 nM; in test [2], 316 nM; in test [3], 30.8 nM; on KAT6A Full length enzyme, 10.7 nM.

For `COc1cc(Nc2cc3onc(NS(=O)(=O)c4c(OC)cccc4OC)c3cc2OC)n[nH]1` [Example 44, 2,6-dimethoxy-N-{5-methoxy-6-[(5-methoxy-1H-pyrazol-3-yl)amino]-1,2-benzoxazol-3-yl}benzene-1-sulfonamide], the Ki was 1000 nM at KAT5 Full length enzyme; 9.8 nM in test [1]; greater than 16300 nM at KAT8 Full length enzyme; 48.2 nM in test [2]; 16.2 nM in test [3]; 3.4 nM on KAT6A Full length enzyme.

As to `COc1cc2c(NS(=O)(=O)c3c(OC)cccc3OC)noc2cc1Nc1cc(C2CC2)n[nH]1` [Example 47, N-{6-[(3-cyclopropyl-1H-pyrazol-5-yl)amino]-5-methoxy-1,2-benzoxazol-3-yl}-2,6-dimethoxybenzene-1-sulfonamide], the Ki was 131 nM at KAT5 Full length enzyme; 1.9 nM in test [1]; 1220 nM at KAT8 Full length enzyme; 5 nM in test [2]; 2.2 nM in test [3]; 0.8 nM on KAT6A Full length enzyme.
